The NIST ThermoML archive (doi:10.1016/j.jct.2004.09.018)

Assay: molar heat capacity at constant pressure
Details: 101.33 kPa

O=Cc1ccc([N+](=O)[O-])cc1[N+](=O)[O-] [2,4-dinitrobenzaldehyde]
Details	molar heat capacity at constant pressure [J/K/mol]
206.17 K, Crystal	56.4
208.82 K, Crystal	57.15
211.47 K, Crystal	56.9
214.01 K, Crystal	58.62
216.52 K, Crystal	60.85
219.02 K, Crystal	60.11
221.6 K, Crystal	60.6
224.29 K, Crystal	61.84
226.79 K, Crystal	62.82
229.3 K, Crystal	62.82
231.81 K, Crystal	64.06
234.37 K, Crystal	65.17
236.8 K, Crystal	66.36
239.16 K, Crystal	67.38
241.63 K, Crystal	68.9
243.96 K, Crystal	70.6
246.15 K, Crystal	72.46
248.51 K, Crystal	72.63
250.87 K, Crystal	73.64
253.13 K, Crystal	75.85
255.45 K, Crystal	78.05
257.75 K, Crystal	79.41
260 K, Crystal	80.42
262.29 K, Crystal	81.1
265.37 K, Crystal	83.47
266.84 K, Crystal	84.66
269.06 K, Crystal	86.52
271.28 K, Crystal	88.55
273.5 K, Crystal	90.93
275.72 K, Crystal	93.3
277.9 K, Crystal	94.99
280.12 K, Crystal	96.35
282.24 K, Crystal	98.88
284.45 K, Crystal	100.75
286.53 K, Crystal	101.94
288.75 K, Crystal	103.12
290.86 K, Crystal	105.15
293.05 K, Crystal	105.66
295.09 K, Crystal	108.2
297.17 K, Crystal	110.92
299.24 K, Crystal	112.78
301.25 K, Crystal	116
303.25 K, Crystal	118.56
305.33 K, Crystal	120.3
307.3 K, Crystal	122.62
309.27 K, Crystal	124.17
311.25 K, Crystal	125.72
313.22 K, Crystal	128.04
315.24 K, Crystal	130.3
317.17 K, Crystal	132.69
319.12 K, Crystal	135.33
321.07 K, Crystal	136.59
322.98 K, Crystal	138.88
324.91 K, Crystal	141.63
326.82 K, Crystal	144.41
328.67 K, Crystal	147.92
330.55 K, Crystal	151.7
332.43 K, Crystal	154.77
334.19 K, Crystal	158.54
335.92 K, Crystal	161.76
337.65 K, Crystal	165.54
339.38 K, Crystal	169.32
341.03 K, Crystal	173.09
348.1 K, Liquid	300.29
349.69 K, Liquid	307.08
351.29 K, Liquid	313.48
352.84 K, Liquid	317.48
354.37 K, Liquid	327.47
355.87 K, Liquid	334.28
357.34 K, Liquid	342.27
358.75 K, Liquid	344.27
360.22 K, Liquid	349.07
361.51 K, Liquid	354.26
362.75 K, Liquid	357.86
363.93 K, Liquid	367.87
365.07 K, Liquid	373.86
366.13 K, Liquid	381.06
367.12 K, Liquid	389.86
